Test results: ChEMBL document CHEMBL5360646, “Optimization of M3 Antagonist-PDE4 Inhibitor (MAPI) Dual Pharmacology Molecules for the Treatment of COPD” (J Med Chem, 2023)
≈ marks a conversion by molar mass, not a printed value. Calls of active or inactive are those of the source. No cut-off for these calls is given here.

Tests used:
[1] = biological target: Muscarinic acetylcholine receptor M3 (Homo sapiens, UniProt P20309); experiment: Displacement of [3H]N-methylscopolamine chloride from human muscarinic M3 receptor incubated for 2 hrs by radioligand binding assay
Trachea = experiment: Bronchoconstriction activity in Sprague-Dawley rat trachea assessed as inhibition of carbachol-induced tracheal contraction; assay type: functional, tissue-based; conditions: Rattus norvegicus, Sprague-Dawley, Trachea
[2] = biological target: T1, 3',5'-cyclic-AMP phosphodiesterase 4B (Homo sapiens, UniProt Q07343); experiment: Inhibition of human recombinant PDE4B2 expressed in baculovirus expression system using cAMP as substrate incubated for 2 hrs by HTRF assay
[3] = Antiinflammatory activity against LPS-stimulated human PBMC cells assessed reduction in TNFalpha level incubated for 18 hrs by ELISA analysis; assay type: functional, cell-based; conditions: Homo sapiens, PBMC, 18 h
Rattus norvegicus [4] = experiment: Anti-bronchospastic activity in carbachol-induced bronchospasm Sprague-Dawley rat model assessed as inhibition of carbachol-induced bronchoconstriction administered IT(Intratracheal) for 1 hr prior to carbachol challenge; assay type: functional; conditions: Rattus norvegicus, Sprague-Dawley, read-out: ED50
Rattus norvegicus [5] = experiment: Anti-bronchospastic activity in carbachol-induced bronchospasm Sprague-Dawley rat model assessed as inhibition of carbachol-induced bronchoconstriction at 30 nmol/kg, IT(Intratracheal) administered 1 hr prior to carbachol challenge; assay type: functional; design: scale not given: the % may be the effect or the level left
Rattus norvegicus [6] = experiment: Anti-bronchospastic activity in carbachol-induced bronchospasm Sprague-Dawley rat model assessed as inhibition of carbachol-induced bronchoconstriction at 30 nmol/kg, IT(Intratracheal) administered 16 hr prior to carbachol challenge; assay type: functional; design: scale not given: the % may be the effect or the level left
Rattus norvegicus [7] = experiment: Anti-inflammatory activity against OVA-sensitized Brown-Norway rat airway inflammation model assessed as inhibition of OVA-induced eosinophil influx administered IT(Intratracheal) 2 hrs prior to OVA challenge; assay type: functional
[8] = Ratio of ED50 for Anti-inflammatory activity against OVA-sensitized Brown-Norway rat airway inflammation model to ED50 for Anti-bronchospastic activity in carbachol-induced bronchospasm Sprague-Dawley rat model; assay type: functional
Rattus norvegicus [9] = experiment: Anti-inflammatory activity against OVA-sensitized Brown-Norway rat airway inflammation model assessed as inhibition of OVA-induced eosinophil influx in BALF at 30 nmol/kg, IT(Intratracheal) pretreated 24 hrs prior to OVA challenge and measured after 48 hrs by automated cell counter analysis; assay type: functional; design: scale not given: the % may be the effect or the level left
Rattus norvegicus [10] = experiment: Anti-inflammatory activity against OVA-sensitized Brown-Norway rat airway inflammation model assessed as inhibition of OVA-induced eosinophil influx at 1 nmol/kg,IT(Intratracheal) pretreated 2 hrs prior to OVA challenge by automated cell counter analysis; assay type: functional; design: scale not given: the % may be the effect or the level left
Rattus norvegicus [11] = experiment: Anti-inflammatory activity against OVA-sensitized Brown-Norway rat airway inflammation model assessed as inhibition of OVA-induced eosinophil influx at 10 nmol/kg,IT(Intratracheal) pretreated 2 hrs prior to OVA challenge by automated cell counter analysis; assay type: functional; design: scale not given: the % may be the effect or the level left
Rattus norvegicus [12] = experiment: Anti-inflammatory activity against OVA-sensitized Brown-Norway rat airway inflammation model assessed as inhibition of OVA-induced eosinophil influx at 100 nmol/kg,IT(Intratracheal) pretreated 2 hrs prior to OVA challenge by automated cell counter analysis; assay type: functional; design: scale not given: the % may be the effect or the level left
Rattus norvegicus [13] = experiment: Anti-inflammatory activity against OVA-sensitized Brown-Norway rat airway inflammation model assessed as inhibition of OVA-induced eosinophil influx at 10 nmol/kg,IT(Intratracheal) pretreated 24 hrs prior to OVA challenge and measured after 48 hrs by automated cell counter analysis; assay type: functional; design: scale not given: the % may be the effect or the level left
Rattus norvegicus [14] = experiment: Anti-inflammatory activity against OVA-sensitized Brown-Norway rat airway inflammation model assessed as inhibition of OVA-induced eosinophil influx at 100 nmol/kg,IT(Intratracheal) pretreated 24 hrs prior to OVA challenge and measured after 48 hrs by automated cell counter analysis; assay type: functional; design: scale not given: the % may be the effect or the level left; conditions: time 72 hrs
Rattus norvegicus [15] = experiment: Anti-inflammatory activity against OVA-sensitized Brown-Norway rat airway inflammation model assessed as inhibition of OVA-induced eosinophil influx at 1000 nmol/kg,IT(Intratracheal) pretreated 24 hrs prior to OVA challenge and measured after 48 hrs by automated cell counter analysis; assay type: functional; design: scale not given: the % may be the effect or the level left; conditions: time 72 hrs
Rattus norvegicus [16] = experiment: Anti-inflammatory activity against OVA-sensitized Brown-Norway rat airway inflammation model assessed as inhibition of OVA-induced eosinophil influx administered IT(Intratracheal) pretreated 24 hrs prior to OVA challenge and measured after 48 hrs by automated cell counter analysis; assay type: functional; conditions: time 72 hrs
[17] = biological target: T2, Muscarinic acetylcholine receptor M2 (Homo sapiens, UniProt P08172); experiment: Displacement of [3H]N-methylscopolamine chloride from human muscarinic M2 receptor incubated for 2 hrs by radioligand binding assay
T2 sequence (P08172 whole entry): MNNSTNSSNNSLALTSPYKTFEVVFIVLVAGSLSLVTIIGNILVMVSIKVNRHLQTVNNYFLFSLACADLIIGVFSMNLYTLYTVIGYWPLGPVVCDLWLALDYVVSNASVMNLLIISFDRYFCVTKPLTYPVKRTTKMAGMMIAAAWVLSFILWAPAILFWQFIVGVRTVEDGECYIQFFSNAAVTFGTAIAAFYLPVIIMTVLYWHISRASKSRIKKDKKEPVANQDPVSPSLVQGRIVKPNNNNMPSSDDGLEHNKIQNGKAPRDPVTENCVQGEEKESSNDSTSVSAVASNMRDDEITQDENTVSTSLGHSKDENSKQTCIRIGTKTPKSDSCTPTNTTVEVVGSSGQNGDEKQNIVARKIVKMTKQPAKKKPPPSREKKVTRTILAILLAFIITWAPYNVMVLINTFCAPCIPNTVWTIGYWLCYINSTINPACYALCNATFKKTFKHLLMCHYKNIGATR

[18] = biological target: Dual specificity calcium/calmodulin-dependent 3',5'-cyclic nucleotide phosphodiesterase 1A (Homo sapiens) (UniProt P54750); experiment: Inhibition of human recombinant PDE1A3 expressed in baculovirus expression system using cAMP as substrate at 1 uM by radiometric assay
[19] = biological target: cGMP-inhibited 3',5'-cyclic phosphodiesterase 3A (Homo sapiens) (UniProt Q14432); experiment: Inhibition of human recombinant PDE3A expressed in baculovirus expression system using cAMP as substrate at 1 uM by radiometric assay
[20] = biological target: cGMP-specific 3',5'-cyclic phosphodiesterase (Homo sapiens) (UniProt O76074); experiment: Inhibition of human recombinant PDE5 catalytic domain expressed in baculovirus expression system using […] as substrate at 1 uM by radiometric assay
[21] = biological target: 3',5'-cyclic-AMP phosphodiesterase 4A (Homo sapiens, UniProt P27815); experiment: Inhibition of human recombinant PDE4A4 expressed in baculovirus expression system using cAMP as substrate by radiometric assay
[22] = biological target: T1, 3',5'-cyclic-AMP phosphodiesterase 4B; experiment: Inhibition of human recombinant PDE4B2 expressed in baculovirus expression system using cAMP as substrate by radiometric assay
[23] = biological target: 3',5'-cyclic-AMP phosphodiesterase 4C (Homo sapiens, UniProt Q08493); experiment: Inhibition of human recombinant PDE4C2 expressed in baculovirus expression system using cAMP as substrate by radiometric assay
[24] = biological target: 3',5'-cyclic-AMP phosphodiesterase 4D (Homo sapiens, UniProt Q08499); experiment: Inhibition of human recombinant PDE4D3 expressed in baculovirus expression system using cAMP as substrate by radiometric assay
[25] = Toxicity in ferret assessed as appearance of nausea-like behavior at 10 nmol/kg, IT(Intratracheal) and measured for 4 hrs by behavioral analysis; design: species or system Mustela putorius furo; conditions: in vivo, inhaled_or_intranasal
[26] = Toxicity in ferret assessed as emetic response at 10 nmol/kg, IT(Intratracheal) and measured for 4 hrs by behavioral analysis; design: species or system Mustela putorius furo; conditions: in vivo, inhaled_or_intranasal
[27] = Toxicity in ferret assessed as appearance of nausea-like behavior at 10 nmol/kg,po and measured for 4 hrs by behavioral analysis; design: species or system Mustela putorius furo; conditions: in vivo
[28] = Toxicity in ferret assessed as emetic response at 10 nmol/kg,po and measured for 4 hrs by behavioral analysis; design: species or system Mustela putorius furo; conditions: in vivo
[29] = Toxicity in pilocarpine hydrochloride induced salivation Sprague-Dawley rat model assessed as inhibition of salivary secretion at 1 mM,INH for 10 mins; conditions: in vivo, inhaled_or_intranasal, 1000 µM
[30] = Toxicity in pilocarpine hydrochloride induced salivation Sprague-Dawley rat model assessed as inhibition of salivary secretion at 3 mM,INH for 10 mins; conditions: in vivo, inhaled_or_intranasal, 10 min, 3000 µM
[31] = Solubility of compound simulated lung fluid at 1 mg/ml and measured at 0 hr by UPLC-MS analysis; assay type: physicochemical
[32] = Solubility of compound simulated lung fluid at 1 mg/ml and measured at 2 hr by UPLC-MS analysis; assay type: physicochemical
[33] = AUC (0 to infinity) in Sprague-Dawley rat lung at 10 ug,IT(Intratracheal) by HPLC-MS/MS analysis; assay type: ADME, tissue-based; design: dose 10 µg, route it(Intratracheal); conditions: in vivo, inhaled_or_intranasal
[34] = Cmax in Sprague-Dawley rat lung at 10 ug,IT(Intratracheal) by HPLC-MS/MS analysis; assay type: ADME, tissue-based; design: dose 10 µg, route it(Intratracheal); conditions: inhaled or intranasal
[35] = Half life in Sprague-Dawley rat lung at 10 ug,IT(Intratracheal) by HPLC-MS/MS analysis; assay type: ADME, tissue-based; conditions: inhaled or intranasal, dose 10 µg
[36] = AUClast in Sprague-Dawley rat plasma at 10 ug,IT(Intratracheal) by HPLC-MS/MS analysis; assay type: ADME, cell-free; design: dose 10 µg, route it(Intratracheal); conditions: inhaled or intranasal
[37] = Cmax in Sprague-Dawley rat plasma at 10 ug,IT(Intratracheal) by HPLC-MS/MS analysis; assay type: ADME, cell-free; design: dose 10 µg, route it(Intratracheal); conditions: inhaled or intranasal

T1 sequence (Q07343 whole entry): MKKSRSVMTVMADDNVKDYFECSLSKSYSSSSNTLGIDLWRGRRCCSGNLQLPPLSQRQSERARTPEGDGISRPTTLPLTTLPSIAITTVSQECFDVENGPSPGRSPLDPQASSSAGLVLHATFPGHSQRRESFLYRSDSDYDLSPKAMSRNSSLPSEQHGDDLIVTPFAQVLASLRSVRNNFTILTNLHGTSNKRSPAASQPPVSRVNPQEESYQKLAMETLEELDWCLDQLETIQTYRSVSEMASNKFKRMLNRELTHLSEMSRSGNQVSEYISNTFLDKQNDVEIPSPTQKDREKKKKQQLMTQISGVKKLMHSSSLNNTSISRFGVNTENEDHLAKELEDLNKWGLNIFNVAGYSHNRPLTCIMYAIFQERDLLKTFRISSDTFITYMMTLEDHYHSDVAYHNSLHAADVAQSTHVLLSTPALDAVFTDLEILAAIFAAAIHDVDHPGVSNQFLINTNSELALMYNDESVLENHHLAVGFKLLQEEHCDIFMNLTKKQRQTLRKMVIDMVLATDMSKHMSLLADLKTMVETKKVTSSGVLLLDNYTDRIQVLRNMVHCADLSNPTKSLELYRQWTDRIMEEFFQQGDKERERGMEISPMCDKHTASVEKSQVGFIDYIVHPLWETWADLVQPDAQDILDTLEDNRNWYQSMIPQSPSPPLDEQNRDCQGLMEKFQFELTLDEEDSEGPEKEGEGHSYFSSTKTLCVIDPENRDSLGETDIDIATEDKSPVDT
Chain of 3',5'-cyclic-AMP phosphodiesterase 4A (P27815 whole entry): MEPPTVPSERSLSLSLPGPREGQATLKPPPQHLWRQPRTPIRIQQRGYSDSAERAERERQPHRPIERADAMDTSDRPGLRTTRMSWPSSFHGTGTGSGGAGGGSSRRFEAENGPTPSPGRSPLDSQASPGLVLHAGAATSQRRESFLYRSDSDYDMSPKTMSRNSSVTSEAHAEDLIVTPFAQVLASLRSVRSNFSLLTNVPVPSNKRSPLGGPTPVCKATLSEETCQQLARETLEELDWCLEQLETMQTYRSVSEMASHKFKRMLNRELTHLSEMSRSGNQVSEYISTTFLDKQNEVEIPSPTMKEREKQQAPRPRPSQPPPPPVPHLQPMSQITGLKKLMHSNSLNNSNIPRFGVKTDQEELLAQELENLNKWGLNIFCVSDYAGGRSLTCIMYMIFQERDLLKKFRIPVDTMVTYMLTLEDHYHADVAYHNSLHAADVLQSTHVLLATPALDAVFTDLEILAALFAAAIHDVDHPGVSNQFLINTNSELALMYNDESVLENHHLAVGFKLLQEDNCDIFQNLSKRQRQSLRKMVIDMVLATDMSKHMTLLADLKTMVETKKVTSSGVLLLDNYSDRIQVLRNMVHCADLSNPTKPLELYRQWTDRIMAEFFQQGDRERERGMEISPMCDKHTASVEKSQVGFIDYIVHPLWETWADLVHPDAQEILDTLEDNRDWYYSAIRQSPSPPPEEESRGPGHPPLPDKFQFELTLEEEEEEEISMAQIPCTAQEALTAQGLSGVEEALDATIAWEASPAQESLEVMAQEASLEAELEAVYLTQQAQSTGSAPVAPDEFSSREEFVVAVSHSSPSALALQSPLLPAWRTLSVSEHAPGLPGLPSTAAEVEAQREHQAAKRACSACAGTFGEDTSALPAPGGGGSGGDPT
Chain of 3',5'-cyclic-AMP phosphodiesterase 4C (Q08493 whole entry): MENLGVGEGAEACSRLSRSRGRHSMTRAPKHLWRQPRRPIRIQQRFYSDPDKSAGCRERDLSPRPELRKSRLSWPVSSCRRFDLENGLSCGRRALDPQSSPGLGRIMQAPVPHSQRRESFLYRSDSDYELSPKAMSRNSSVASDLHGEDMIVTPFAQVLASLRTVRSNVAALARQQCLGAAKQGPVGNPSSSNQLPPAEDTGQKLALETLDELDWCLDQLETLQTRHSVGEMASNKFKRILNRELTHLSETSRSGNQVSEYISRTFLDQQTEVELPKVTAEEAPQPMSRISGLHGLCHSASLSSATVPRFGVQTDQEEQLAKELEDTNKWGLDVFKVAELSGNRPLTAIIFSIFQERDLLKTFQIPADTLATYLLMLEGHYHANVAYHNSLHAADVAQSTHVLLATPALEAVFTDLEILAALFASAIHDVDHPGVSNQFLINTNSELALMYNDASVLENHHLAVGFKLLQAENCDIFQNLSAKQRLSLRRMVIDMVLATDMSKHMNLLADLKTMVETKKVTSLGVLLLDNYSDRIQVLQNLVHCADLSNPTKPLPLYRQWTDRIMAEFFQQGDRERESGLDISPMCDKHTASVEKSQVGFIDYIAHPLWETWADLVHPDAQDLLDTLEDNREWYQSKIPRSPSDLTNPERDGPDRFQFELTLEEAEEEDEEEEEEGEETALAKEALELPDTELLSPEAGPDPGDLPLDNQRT
Chain of Dual specificity calcium/calmodulin-dependent 3',5'-cyclic nucleotide phosphodiesterase 1A (Homo sapiens) (P54750 whole entry): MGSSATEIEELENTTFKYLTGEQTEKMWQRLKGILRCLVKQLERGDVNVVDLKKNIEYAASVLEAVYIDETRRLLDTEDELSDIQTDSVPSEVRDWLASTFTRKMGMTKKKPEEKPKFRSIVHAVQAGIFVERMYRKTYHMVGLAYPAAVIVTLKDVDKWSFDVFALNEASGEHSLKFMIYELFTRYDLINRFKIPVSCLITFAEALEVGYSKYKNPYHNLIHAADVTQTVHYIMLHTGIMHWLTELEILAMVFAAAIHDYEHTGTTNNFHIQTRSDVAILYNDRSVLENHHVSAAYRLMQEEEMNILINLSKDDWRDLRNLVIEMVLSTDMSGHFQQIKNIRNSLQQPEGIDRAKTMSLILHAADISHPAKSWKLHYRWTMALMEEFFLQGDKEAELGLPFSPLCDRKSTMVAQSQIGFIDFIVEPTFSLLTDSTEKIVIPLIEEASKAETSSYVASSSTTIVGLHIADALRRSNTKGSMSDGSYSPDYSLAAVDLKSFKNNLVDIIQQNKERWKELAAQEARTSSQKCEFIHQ
Chain of 3',5'-cyclic-AMP phosphodiesterase 4D (Q08499 whole entry): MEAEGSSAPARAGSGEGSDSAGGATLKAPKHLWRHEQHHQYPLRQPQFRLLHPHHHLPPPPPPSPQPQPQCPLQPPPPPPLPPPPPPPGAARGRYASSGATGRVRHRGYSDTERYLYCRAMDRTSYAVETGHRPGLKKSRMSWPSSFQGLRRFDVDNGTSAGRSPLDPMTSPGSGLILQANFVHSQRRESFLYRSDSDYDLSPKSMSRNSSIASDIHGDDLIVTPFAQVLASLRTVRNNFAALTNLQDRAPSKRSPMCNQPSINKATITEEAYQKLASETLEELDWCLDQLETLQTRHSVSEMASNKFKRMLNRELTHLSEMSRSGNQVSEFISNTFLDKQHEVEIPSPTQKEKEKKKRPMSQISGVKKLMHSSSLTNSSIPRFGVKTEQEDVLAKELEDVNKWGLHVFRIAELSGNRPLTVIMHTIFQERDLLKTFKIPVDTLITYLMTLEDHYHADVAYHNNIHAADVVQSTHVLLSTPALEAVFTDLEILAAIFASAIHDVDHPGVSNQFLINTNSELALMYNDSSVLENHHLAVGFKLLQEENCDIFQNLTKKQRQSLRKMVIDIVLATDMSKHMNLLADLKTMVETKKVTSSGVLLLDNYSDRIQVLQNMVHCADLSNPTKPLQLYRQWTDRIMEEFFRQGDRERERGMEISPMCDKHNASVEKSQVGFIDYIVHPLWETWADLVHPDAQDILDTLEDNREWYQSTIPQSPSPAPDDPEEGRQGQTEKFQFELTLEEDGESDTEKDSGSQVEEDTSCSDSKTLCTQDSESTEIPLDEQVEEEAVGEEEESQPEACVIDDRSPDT
Chain of Muscarinic acetylcholine receptor M3 (P20309 whole entry): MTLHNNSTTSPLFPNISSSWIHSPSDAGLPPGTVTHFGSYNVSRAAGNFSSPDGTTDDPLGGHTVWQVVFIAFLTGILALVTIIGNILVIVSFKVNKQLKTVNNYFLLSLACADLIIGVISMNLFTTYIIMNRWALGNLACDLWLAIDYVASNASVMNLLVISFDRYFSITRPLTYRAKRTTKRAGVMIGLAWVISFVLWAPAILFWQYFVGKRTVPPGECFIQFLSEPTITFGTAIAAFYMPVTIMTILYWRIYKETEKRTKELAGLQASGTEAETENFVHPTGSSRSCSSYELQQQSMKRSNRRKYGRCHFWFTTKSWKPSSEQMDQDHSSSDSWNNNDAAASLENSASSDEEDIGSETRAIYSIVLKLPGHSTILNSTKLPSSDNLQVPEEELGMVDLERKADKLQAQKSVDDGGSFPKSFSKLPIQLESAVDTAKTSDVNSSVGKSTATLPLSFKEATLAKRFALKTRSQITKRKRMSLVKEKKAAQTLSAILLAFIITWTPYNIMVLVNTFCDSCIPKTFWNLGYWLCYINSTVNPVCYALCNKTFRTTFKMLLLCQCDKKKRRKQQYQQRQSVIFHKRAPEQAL

CCOc1cc([C@H](Cc2c(Cl)c[n+]([O-])cc2Cl)OC(=O)c2ccc(CN[C@@](CO)(C(=O)O[C@H]3CN4CCC3CC4)c3ccccc3)s2)ccc1OC
Ki [1]: 0.631 nM
IC50 (Trachea): 12.6 nM
IC50 [2]: 1 nM
IC50 [3]: 0.316 nM
ED50 (Rattus norvegicus [4]): 0.007 µmol/kg
Activity (Rattus norvegicus [5]): 80%
Activity (Rattus norvegicus [6]): 83%
ED50 (Rattus norvegicus [7]): 0.007 µmol/kg
Ratio ED50 [8]: 1
Activity (Rattus norvegicus [9]): 63%
Activity (Rattus norvegicus [10]): 28%
Activity (Rattus norvegicus [11]): 60%
Activity (Rattus norvegicus [12]): 92%
Activity (Rattus norvegicus [13]): 45%
Activity (Rattus norvegicus [14]): 72%
Activity (Rattus norvegicus [15]): >100%
ED50 (Rattus norvegicus [16]): 0.016 µmol/kg
Ki [17]: 10 nM
inhibition [18]: inactive
inhibition [19]: inactive
inhibition [20]: inactive
IC50 [21]: 0.0316 nM
IC50 [22]: 0.0398 nM
IC50 [23]: 0.0251 nM
IC50 [24]: 0.398 nM
Activity [25]: Non-Toxic
Activity [26]: Non-Toxic
Activity [27]: Non-Toxic
Activity [28]: Non-Toxic
Activity [29]: Non-Toxic
Activity [30]: Non-Toxic
solubility at 0 h [31]: 3.3 µg/mL (≈ 4.28 µM)
solubility at 2 h [32]: 1.6 µg/mL (≈ 2.08 µM)
AUC [33]: 9242 ng·h/g
Cmax [34]: 6270 ng/g
half-life [35]: 4.3 h
AUC(0-t) [36]: 3.7 ng·h/mL
Cmax [37]: 2 ng/mL
